Test results as given in ChEMBL document CHEMBL1201862, “PubChem BioAssay data set” (2004).
Calls of active or inactive are those of the source.

Experiments:
[1] = cells; assay type: functional, cell-based
[2] = cells; assay type: functional, cell-based; remark: listed apart in the source
[3] = target: Paired box protein Pax-8 (Homo sapiens, UniProt Q06710); experiment: PAX8 transcriptional activity inhibition in RMG-I – RMG-I cells, luciferase, cherry-pick, dose response (AID 687027); assay type: functional, cell-based;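 further: luciferase reporter driven by Pax8 target thyroperoxidase promoter measured by SteadyGlo luminescence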
Chain of Paired box protein Pax-8 (Q06710 whole entry): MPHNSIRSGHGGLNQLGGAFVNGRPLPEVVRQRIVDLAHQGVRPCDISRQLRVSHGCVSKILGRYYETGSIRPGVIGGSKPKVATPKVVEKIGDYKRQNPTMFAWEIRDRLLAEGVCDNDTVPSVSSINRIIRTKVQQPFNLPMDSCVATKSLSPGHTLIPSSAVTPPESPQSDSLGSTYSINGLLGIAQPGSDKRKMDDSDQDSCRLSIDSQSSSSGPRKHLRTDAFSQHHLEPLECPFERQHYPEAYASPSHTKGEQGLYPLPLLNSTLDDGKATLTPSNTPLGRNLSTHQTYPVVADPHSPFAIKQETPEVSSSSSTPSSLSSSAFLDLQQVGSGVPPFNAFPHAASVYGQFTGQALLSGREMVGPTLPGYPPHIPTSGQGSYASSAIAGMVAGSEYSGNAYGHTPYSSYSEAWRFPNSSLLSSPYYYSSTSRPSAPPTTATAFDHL

[4] = target: T1, Calpain-2 catalytic subunit (Sus scrofa, UniProt P43367); experiment: m-calpain protease blockers, concentration series – biochemical, fluorogenic peptide substrate, dose response (AID 1420); assay type: functional
T1 sequence (P43367 whole entry): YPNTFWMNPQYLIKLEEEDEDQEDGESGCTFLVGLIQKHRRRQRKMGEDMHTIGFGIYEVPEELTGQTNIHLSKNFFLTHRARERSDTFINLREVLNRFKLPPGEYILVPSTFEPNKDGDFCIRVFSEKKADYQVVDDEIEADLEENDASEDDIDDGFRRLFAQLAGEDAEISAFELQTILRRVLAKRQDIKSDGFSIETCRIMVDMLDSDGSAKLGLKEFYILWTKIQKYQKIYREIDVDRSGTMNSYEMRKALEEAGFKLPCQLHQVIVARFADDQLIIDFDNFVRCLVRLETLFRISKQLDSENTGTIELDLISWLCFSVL

[5] = Luminescence Cell-Based Dose Retest to Confirm Inhibitors of Cancer Stem Cells. [Related pubchem assays (depositor defined):AID2717, AID2721]; assay type: functional; conditions: Homo sapiens
[6] = system: INS1; experiment: INS-1E survival protection against cytokine death – cell-based, luminescence, retest, dose response (AID 449756); assay type: functional; conditions: Rattus norvegicus;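 further: cell death triggered by IL-1 beta plus TNF-alpha plus IFN-gamma mixture; protective hits raise ATP signal compared with cytokine alone wells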
[7] = target: T2, Fatty acid synthase (Homo sapiens, UniProt P49327); experiment: inhibition of human FAS-TE enzyme activity – biochemical, endpoint fluorescence intensity, uHTS hits, dose response (AID 624327); assay type: functional;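 further: fluorescence from hydrolysis of an O-methyl fluorescein acyl ester substrate by the enzyme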
T2 sequence (P49327 whole entry): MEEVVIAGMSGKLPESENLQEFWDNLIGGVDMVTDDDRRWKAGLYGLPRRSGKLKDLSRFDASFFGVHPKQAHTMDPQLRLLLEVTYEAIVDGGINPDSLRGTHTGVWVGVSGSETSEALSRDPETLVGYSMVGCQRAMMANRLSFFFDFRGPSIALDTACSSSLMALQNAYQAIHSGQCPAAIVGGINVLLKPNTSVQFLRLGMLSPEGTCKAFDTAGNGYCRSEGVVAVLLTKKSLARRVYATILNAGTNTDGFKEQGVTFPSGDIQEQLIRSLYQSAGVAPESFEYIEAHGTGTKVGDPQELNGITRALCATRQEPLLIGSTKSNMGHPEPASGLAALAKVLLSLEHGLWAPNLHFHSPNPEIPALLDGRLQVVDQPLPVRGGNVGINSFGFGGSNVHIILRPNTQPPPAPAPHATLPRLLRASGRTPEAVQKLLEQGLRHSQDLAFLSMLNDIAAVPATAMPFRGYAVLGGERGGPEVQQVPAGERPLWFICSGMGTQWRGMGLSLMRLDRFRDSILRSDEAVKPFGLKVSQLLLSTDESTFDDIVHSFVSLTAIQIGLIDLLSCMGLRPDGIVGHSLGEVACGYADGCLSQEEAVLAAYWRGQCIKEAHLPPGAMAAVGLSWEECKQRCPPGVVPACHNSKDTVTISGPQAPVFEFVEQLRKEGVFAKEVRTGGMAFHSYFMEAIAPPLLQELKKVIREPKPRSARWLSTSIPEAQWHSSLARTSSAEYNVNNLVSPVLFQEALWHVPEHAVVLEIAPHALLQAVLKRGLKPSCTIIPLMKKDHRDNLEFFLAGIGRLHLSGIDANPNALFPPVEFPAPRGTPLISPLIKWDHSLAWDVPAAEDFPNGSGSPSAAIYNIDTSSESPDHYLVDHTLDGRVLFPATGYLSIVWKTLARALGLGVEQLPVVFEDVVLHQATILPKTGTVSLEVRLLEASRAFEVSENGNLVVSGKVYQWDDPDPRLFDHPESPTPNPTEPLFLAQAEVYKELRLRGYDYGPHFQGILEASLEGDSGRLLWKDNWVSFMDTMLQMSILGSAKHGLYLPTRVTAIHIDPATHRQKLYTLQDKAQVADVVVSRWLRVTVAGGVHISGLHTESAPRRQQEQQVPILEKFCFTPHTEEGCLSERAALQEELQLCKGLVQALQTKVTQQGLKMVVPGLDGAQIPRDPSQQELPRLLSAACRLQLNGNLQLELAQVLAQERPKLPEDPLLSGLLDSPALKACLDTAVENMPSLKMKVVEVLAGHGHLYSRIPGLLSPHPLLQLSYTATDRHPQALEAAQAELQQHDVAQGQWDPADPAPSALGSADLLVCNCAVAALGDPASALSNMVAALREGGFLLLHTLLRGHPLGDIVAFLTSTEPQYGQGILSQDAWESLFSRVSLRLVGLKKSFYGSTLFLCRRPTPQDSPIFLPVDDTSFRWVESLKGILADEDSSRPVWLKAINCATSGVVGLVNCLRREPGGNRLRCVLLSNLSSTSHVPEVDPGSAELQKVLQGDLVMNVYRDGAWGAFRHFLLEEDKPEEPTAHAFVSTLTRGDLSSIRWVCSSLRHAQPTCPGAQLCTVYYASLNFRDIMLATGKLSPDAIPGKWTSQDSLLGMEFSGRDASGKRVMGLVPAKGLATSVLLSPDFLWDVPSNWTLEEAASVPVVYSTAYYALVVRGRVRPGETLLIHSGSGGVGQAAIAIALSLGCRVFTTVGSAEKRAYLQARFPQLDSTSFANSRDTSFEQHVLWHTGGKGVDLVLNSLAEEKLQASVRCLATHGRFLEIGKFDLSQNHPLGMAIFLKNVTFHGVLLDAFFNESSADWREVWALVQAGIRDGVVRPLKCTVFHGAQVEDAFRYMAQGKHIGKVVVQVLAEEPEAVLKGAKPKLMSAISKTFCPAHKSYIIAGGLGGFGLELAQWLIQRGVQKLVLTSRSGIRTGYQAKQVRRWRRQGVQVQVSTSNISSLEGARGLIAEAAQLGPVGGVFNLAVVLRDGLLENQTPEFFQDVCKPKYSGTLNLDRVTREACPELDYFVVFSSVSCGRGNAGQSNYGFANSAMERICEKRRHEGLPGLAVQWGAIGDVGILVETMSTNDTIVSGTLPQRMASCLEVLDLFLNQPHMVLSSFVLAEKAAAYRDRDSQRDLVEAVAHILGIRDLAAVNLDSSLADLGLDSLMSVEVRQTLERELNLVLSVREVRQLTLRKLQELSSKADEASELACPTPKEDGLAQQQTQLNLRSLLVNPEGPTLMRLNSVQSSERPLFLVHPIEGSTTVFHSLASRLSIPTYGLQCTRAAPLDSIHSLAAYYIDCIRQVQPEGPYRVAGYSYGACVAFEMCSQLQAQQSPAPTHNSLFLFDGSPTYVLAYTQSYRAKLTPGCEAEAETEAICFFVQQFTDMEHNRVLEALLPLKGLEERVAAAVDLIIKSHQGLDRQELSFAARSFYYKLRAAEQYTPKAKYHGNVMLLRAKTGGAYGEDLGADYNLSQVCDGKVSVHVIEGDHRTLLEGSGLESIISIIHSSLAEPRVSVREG

[8] = target: T2, Fatty acid synthase; experiment: inhibition of human FAS-TE enzyme activity – biochemical, kinetic fluorescence intensity, dose response (AID 624326); assay type: functional;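 further: rate of fluorescence rise from hydrolysis of a fluorogenic O-methyl fluorescein ester substrate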
[9] = Luminescence Cell-Based Dose Response HTS to Identify Activators of Luciferase Translation or Activity in H4 […] Cells. [Related pubchem assays: 1829 (Project Summary), 1814 (Primary HTS)]; assay type: functional
[10] = system: H4; experiment: Luminescence Cell-Based Dose Response HTS to Identify Activators of 5'UTR Stem-Loop Driven Prion Protein mRNA Translation in H4 Neuroglioblastoma Cells. [Related pubchem assays: 1829 (Project Summary), 1814 (Primary HTS)]; assay type: functional; conditions: Homo sapiens
[11] = NIH3T3 cell viability loss – ATP luminescence, mouse fibroblasts, counter-screen, dose response (AID 2010); assay type: functional, cell-based;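 further: cells exposed to compound for about 90 hours before reading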
[12] = Trypanosoma cruzi growth suppression in host cells – NIH3T3 host cells, beta-gal luminescence, confirmation (AID 2044); assay type: functional, cell-based;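 further: intracellular parasites grown in NIH/3T3 mouse fibroblasts as host cells; luminescent beta-galactosidase reporter signal from transgenic T. cruzi replicating inside host cells; inhibitors lower the luminescence signal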
[13] = target: T3, Corticotropin-releasing factor receptor 2/Corticotropin-releasing factor-binding protein (Homo sapiens, UniProt P24387+Q13324); experiment: activators of CRF receptor 2 with binding protein – uHTS hits, confirmation (AID 602473); assay type: functional; conditions: read-out: EC50_Mean
T3 sequence (Q13324 whole entry): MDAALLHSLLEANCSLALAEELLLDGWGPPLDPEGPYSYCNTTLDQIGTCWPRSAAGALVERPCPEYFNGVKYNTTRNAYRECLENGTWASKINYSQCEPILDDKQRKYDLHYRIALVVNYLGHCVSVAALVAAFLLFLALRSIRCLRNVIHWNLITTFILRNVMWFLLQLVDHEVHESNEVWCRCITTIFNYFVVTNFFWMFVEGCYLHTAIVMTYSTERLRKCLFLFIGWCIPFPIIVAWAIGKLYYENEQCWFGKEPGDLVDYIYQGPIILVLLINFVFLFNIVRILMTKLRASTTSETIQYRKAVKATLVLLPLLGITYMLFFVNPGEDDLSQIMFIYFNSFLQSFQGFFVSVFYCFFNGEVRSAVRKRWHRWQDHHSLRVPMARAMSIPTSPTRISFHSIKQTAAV
T3 sequence (P24387 whole entry): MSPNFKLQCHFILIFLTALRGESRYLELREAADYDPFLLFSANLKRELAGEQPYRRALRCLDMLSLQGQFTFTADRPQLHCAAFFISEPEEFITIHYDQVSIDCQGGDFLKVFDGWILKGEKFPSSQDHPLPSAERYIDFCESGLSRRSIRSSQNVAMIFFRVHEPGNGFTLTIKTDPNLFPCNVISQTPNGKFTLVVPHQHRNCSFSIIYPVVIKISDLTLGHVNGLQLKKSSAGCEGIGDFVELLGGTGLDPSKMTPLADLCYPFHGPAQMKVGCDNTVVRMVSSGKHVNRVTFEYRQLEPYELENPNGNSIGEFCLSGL

[14] = target: T3, Corticotropin-releasing factor receptor 2/Corticotropin-releasing factor-binding protein; experiment: Dose Response confirmation of uHTS hits for small molecule antagonists of the CRF-binding protein and CRF-R2 receptor complex.; assay type: functional; conditions: read-out: IC50_Mean
[15] = target: T4, Replicative DNA helicase DnaB (Mycobacterium tuberculosis, UniProt P9WMR3); experiment: DnaB intein splicing inhibitors, dose response, biochemical, cell-free fluorescence (AID 449749); assay type: functional
T4 sequence (P9WMR3 whole entry): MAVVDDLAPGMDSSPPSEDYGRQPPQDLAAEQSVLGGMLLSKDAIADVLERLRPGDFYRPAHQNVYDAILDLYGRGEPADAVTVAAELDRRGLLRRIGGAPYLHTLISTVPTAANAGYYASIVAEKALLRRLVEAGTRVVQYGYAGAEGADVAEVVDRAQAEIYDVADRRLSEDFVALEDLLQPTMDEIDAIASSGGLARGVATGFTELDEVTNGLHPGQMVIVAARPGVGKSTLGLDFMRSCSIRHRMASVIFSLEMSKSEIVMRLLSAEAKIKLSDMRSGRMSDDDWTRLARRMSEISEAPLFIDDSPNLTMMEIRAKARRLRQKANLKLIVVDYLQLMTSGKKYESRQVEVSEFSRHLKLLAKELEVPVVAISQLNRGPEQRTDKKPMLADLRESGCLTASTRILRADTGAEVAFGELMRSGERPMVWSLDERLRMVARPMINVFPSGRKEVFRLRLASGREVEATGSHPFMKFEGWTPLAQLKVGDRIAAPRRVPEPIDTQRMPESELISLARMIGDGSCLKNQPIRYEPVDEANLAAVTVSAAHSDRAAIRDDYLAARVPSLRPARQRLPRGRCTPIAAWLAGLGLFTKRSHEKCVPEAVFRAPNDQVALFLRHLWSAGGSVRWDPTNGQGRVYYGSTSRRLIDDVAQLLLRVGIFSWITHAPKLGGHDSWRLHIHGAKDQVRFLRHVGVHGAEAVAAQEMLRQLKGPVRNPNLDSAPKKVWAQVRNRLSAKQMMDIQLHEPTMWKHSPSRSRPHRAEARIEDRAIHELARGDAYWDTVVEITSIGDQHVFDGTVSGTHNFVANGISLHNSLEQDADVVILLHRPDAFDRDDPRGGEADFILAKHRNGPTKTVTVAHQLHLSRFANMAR

[16] = target: T5, Protein RecA (Mycobacterium tuberculosis, UniProt P9WHJ3); experiment: Fluorescence Cell-Free Homogeneous Dose Retest to Identify Inhibitors of RecA-Intein Splicing Activity. [Related pubchem assays (depositor defined):AID2097, AID2223, AID489010, AID492950]; assay type: functional
T5 sequence (P9WHJ3 whole entry): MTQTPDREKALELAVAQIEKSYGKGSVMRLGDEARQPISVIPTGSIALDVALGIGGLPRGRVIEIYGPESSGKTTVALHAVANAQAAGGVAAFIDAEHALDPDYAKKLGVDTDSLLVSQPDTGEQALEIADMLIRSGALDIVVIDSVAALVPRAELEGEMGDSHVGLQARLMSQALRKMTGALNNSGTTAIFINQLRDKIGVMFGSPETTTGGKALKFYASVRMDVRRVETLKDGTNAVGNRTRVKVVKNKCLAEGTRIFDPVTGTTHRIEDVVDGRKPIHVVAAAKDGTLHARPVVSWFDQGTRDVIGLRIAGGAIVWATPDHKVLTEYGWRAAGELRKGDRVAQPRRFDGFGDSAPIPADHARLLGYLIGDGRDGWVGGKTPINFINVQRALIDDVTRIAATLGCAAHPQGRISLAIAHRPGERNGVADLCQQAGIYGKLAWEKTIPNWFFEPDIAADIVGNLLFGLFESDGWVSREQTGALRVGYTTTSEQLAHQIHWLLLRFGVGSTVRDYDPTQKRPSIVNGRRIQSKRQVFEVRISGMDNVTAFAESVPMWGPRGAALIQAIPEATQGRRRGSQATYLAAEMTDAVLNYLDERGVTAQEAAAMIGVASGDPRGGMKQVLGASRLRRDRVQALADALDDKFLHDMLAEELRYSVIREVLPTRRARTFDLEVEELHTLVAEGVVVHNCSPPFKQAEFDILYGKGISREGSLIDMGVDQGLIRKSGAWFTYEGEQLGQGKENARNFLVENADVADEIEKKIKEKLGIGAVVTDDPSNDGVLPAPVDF

Structure (SMILES) | EC50 [1] | EC50 [2] | IC50 [7] | IC50 [8] | other results
CCc1nnc(S)n1/N=C/c1ccc(-c2ccc(Br)cc2)o1 | > 350 µM (not active) | > 350 µM (not active) | – | – | –
C[C@@H]1CCCCO[C@H](CN(C)C(=O)Nc2ccc(C(F)(F)F)cc2)[C@@H](C)CN([C@@H](C)CO)C(=O)c2cc(NS(=O)(=O)c3ccccc3)ccc2O1 | – | – | – | – | AC50 [3]: 3.24 µM (active)
COc1cccc(C(=O)C2CCCN(Cc3ccc4nsnc4c3)C2)c1 (stereo not drawn) | > 350 µM (not active) | > 350 µM (not active) | – | – | –
CC(C)Cn1c(SCC(=O)NC(=O)Nc2ccc3c(c2)OCCO3)nc2ccccc2c1=O | – | – | – | – | IC50 [4]: > 50 µM (not active)
COc1ccc(/C=C/C(=O)c2ccc([N+](=O)[O-])o2)cc1 | – | – | – | – | AC50 [5]: 1.31 µM (active); AC50 [6]: 6.75 µM (active)
CC(C=Cc1ccccc1)=NNS(=O)(=O)c1ccc([N+](=O)[O-])cc1 | – | – | 9.36 µM (active) | 6.23 µM (active) | –
O=C(CN1CCN(S(=O)(=O)c2ccc(Cl)c(C(F)(F)F)c2)CC1)NC(=O)NC1CCCCC1 | – | – | 3.5 µM (active) | 37.1 µM (inactive) | –
CC(=O)Cn1c(=O)c2c(nc3n2CCCN3Cc2ccccc2)n(C)c1=O | > 350 µM (not active) | > 350 µM (not active) | – | – | –
O=C(NNS(=O)(=O)c1ccc([N+](=O)[O-])cc1)c1ccc([N+](=O)[O-])cc1 | – | – | 4.95 µM (active) | 4.24 µM (active) | –
Cc1ccc(NC(=O)Cn2cnc3c(=O)n(C)c(=O)n(C)c32)c(C)c1 | > 350 µM (not active) | > 350 µM (not active) | – | – | –
COc1ccc(C(=O)N2CCCCCC2)cc1S(=O)(=O)N1CCOCC1 | > 350 µM (not active) | > 350 µM (not active) | – | – | –
COc1ccc(CCNC(=O)COC(=O)CCC(=O)c2ccc(F)cc2)cc1OC | > 350 µM (not active) | > 350 µM (not active) | – | – | –
C[C@@H]1CN([C@H](C)CO)C(=O)c2cccc(NC(=O)NC3CCCCC3)c2O[C@@H]1CN(C)C(=O)Nc1ccc(C(F)(F)F)cc1 | – | – | 2.09 µM (active) | 2.26 µM (active) | –
C[C@@H]1CN([C@@H](C)CO)C(=O)c2cc(NC(=O)Nc3cccc4ccccc34)ccc2O[C@@H]1CN(C)Cc1ccc2c(c1)OCO2 | – | – | – | – | AC50 [3]: 18.5 µM (active)
O=S(=O)(c1ccc(Cl)cc1)N1CCCC(c2nc(-c3ccc(F)cc3)no2)C1 (stereo not drawn) | – | – | 5.59 µM (active) | 6.27 µM (active) | –
ON=C1c2cc(OCCN3CCCCC3)ccc2-c2ccc(OCCN3CCCCC3)cc21 | > 350 µM (not active) | > 350 µM (not active) | – | – | EC50 [9]: > 120 µM (not active); EC50 [10]: > 120 µM (not active); EC50 [11]: > 60 µM (not active); EC50 [12]: 1.43 µM (active)
Cc1ccc(NC(=O)Nc2cccc(F)c2)nc1 | 11.8 µM (active) | > 350 µM (not active) | – | – | –
COc1ccc(Nc2nc(-c3ccccc3O)nc3ccccc23)cc1 | – | – | – | – | AC50 [5]: 2.75 µM (active)
Cc1ccc(C(=O)N/C(=C\c2cn(S(=O)(=O)N(C)C)c3ccccc23)C(=O)N2CCCC2)cc1 | – | – | 1.58 µM (active) | 1.23 µM (active) | –
CCn1c(=O)c(C(=O)NCc2ccccc2OC)c(O)c2ccccc21 | – | – | – | – | AC50 [5]: 1.26 µM (active)
O=C(COC(=O)c1cc([N+](=O)[O-])ccc1N1CCOCC1)Nc1c(Cl)cccc1C(F)(F)F | – | – | 8.05 µM (active) | 8.39 µM (active) | –
COc1cc2c(c(OC)c1OC)-c1ccc(SC)c(=O)cc1C(NC=O)CC2 (stereo not drawn) | – | – | – | – | AC50 [3]: < 0.26 µM (active)
C=CCSc1nnc(-c2ccc([N+](=O)[O-])cc2)o1 | – | – | – | – | IC50 [4]: 34.3 µM (not active)
FC(F)(F)c1cccc(N2CCN(C(S)=NC3CCCC3)CC2)c1 | – | – | – | – | IC50 [4]: 7.79 µM (not active)
CCCCn1c(=O)c2c(=O)cc(O)oc2c2ccccc21 | > 350 µM (not active) | > 350 µM (not active) | – | – | –
Cc1nc2scc(-c3ccccc3)c2c(=O)o1 | – | – | 5.75 µM (active) | 80 µM (inactive) | –
NC(Cc1ccccc1Sc1ccccc1)=NO | – | – | – | – | EC50 [13]: > 53 µM (inactive); IC50 [14]: > 47.1 µM (inactive)
Nc1ccc(C(=O)Nc2ccc3[nH]c(-c4ccncc4)nc3c2)cc1 | > 350 µM (not active) | 49.5 µM (active) | – | – | –
COC(=O)N1C(=O)[C@](CC(C)C)(c2ccccc2)N1C(=O)OC | – | – | 0.544 µM (active) | 0.385 µM (active) | –
Cc1ccc(NC(=O)c2cc(NC(=O)/C=C\C(=O)O)ccc2N2CCCCC2)cc1 | – | – | – | – | AC50 [15]: 14.4 µM (active); EC50 [16]: 9.32 µM (active); EC50 [13]: > 53 µM (inactive); IC50 [14]: > 47.1 µM (inactive)
